Reference: ChEMBL document CHEMBL1122541, “Peptide sweeteners. 7. Taste relationships of trifluoroacetyl-L-aspartylanilides” (J Med Chem, 1984)
Values belong to the molecule of their own block, whether it stands above or below them.

Tests used:
[1] = Compound taste was tested with reference of sucrose sweetness; + / - = Sweet/ bitter
[2] = Value represents the number of times the compound was as sweet as sucrose; +/- - - = Sweet/ very bitter
[3] = Value represents the number of times the compound was as sweet as sucrose.
[4] = Compound taste was tested with reference of sucrose sweetness; - = Bitter
[5] = Compound taste was tested with reference of sucrose sweetness; +/- = Sweet/bitter
[6] = Value represents the number of times the compound was as sweet as sucrose
[7] = compound taste was tested with reference of sucrose sweetness; + / - - = sweet / bitter
[8] = compound taste was tested with reference of sucrose sweetness; - = bitter
[9] = Compound taste was tested with reference of sucrose sweetness; +/ - - = Sweet/ very bitter
[10] = Compound taste was tested with reference of sucrose sweetness; + / - = Sweet/bitter
[11] = Compound taste was tested with reference of sucrose sweetness; + / - - = Sweet/very bitter

SMILES: Cc1cccc(NC(=O)C(CC(=O)O)NC(=O)C(F)(F)F)c1 (centres undefined)
Taste [1]: + / -

SMILES: N#Cc1ccccc1NC(=O)C(CC(=O)O)NC(=O)C(F)(F)F (centres undefined)
Taste [4]: Bitter

SMILES: N#Cc1cccc(NC(=O)C(CC(=O)O)NC(=O)C(F)(F)F)c1 (centres undefined)
Taste [5]: +/-

SMILES: O=C(O)CC(NC(=O)C(F)(F)F)C(=O)Nc1ccccc1 (centres undefined)
Taste [6]: 12

SMILES: O=C(O)CC(NC(=O)C(F)(F)F)C(=O)Nc1ccc(Cl)cc1 (centres undefined)
Taste [6]: 120

SMILES: O=C(O)CC(NC(=O)C(F)(F)F)C(=O)Nc1ccc([N+](=O)[O-])c([N+](=O)[O-])c1 (centres undefined)
Taste [9]: + / - -

The next lines start with the values.

Taste [2]: +/- - -
SMILES: O=C(O)CC(NC(=O)C(F)(F)F)C(=O)Nc1cccc([N+](=O)[O-])c1 (centres undefined)

Taste [3]: 1500
SMILES: O=C(O)CC(NC(=O)C(F)(F)F)C(=O)Nc1ccc([N+](=O)[O-])cc1 (centres undefined)

Taste [4]: Bitter
SMILES: O=C(O)CC(NC(=O)C(F)(F)F)C(=O)Nc1ccccc1Cl (centres undefined)

Taste [7]: + / - -
SMILES: Cc1cc([N+](=O)[O-])ccc1NC(=O)C(CC(=O)O)NC(=O)C(F)(F)F (centres undefined)

Taste [8]: Bitter
SMILES: O=C(O)CC(NC(=O)C(F)(F)F)C(=O)Nc1ccccc1[N+](=O)[O-] (centres undefined)

Taste [10]: + / -
SMILES: O=C(O)CC(NC(=O)C(F)(F)F)C(=O)Nc1cccc(Cl)c1 (centres undefined)

Taste [6]: 3000
SMILES: N#Cc1ccc(NC(=O)C(CC(=O)O)NC(=O)C(F)(F)F)cc1 (centres undefined)

Taste [11]: + / - -
SMILES: Cc1cc(NC(=O)C(CC(=O)O)NC(=O)C(F)(F)F)ccc1[N+](=O)[O-] (centres undefined)
